Values after ≈ are worked out from the molar mass of the structure shown.
Legend:
[1] = molecular target: T1, Maternal embryonic leucine zipper kinase (Homo sapiens, UniProt Q14680); test: Inhibition of recombinant human MELK expressed in Escherichia coli using ZIPtide as substrate measured after 0.5 hrs by ADP-Glo assay
Target sequence in this assay (Q14680 whole entry): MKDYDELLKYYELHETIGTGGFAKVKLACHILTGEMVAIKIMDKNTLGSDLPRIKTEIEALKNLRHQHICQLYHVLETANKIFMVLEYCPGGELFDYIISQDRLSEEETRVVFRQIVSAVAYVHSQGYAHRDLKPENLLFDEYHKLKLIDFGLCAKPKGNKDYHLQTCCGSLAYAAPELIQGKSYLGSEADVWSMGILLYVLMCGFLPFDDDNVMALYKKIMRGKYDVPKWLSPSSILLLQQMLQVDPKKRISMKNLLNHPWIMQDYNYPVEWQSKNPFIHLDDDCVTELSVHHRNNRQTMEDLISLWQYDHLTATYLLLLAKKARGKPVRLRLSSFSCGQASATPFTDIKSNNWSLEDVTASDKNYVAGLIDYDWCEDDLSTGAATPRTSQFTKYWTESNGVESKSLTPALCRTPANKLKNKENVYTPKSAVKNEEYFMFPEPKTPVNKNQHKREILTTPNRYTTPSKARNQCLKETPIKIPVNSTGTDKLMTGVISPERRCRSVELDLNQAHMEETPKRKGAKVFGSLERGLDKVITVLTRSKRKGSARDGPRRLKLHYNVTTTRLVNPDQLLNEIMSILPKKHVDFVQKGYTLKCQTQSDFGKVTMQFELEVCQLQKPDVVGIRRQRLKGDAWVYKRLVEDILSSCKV

[2] = Lipophilicity, log P of the compound; format: physicochemical; settings: octanol/water
[3] = Kinetic solubility of the compound in pH 7.4 phosphate buffer; format: physicochemical; settings: read-out: Kinetic_solubility
[4] = Stability in mouse liver microsomes assessed as parent compound remaining after 1 hr; format: ADME, Microsome; settings: read-out: Stability
[5] = molecular target: T1, Maternal embryonic leucine zipper kinase; test: Inhibition of recombinant human MELK expressed in Escherichia coli at 5 uM using ZIPtide as substrate measured after 0.5 hrs by ADP-Glo assay relative to control
Target sequence in this assay (Q14680 whole entry, looked up): as the sequence (Q14680 whole entry) above

SMILES | IC50 [1] | other results
CC(=O)c1sc(NC(C)C)c(C#N)c1N | > 5000 nM | 
COc1ccc(C(=O)c2sc(NC(C)C)c(C#N)c2N)cc1 | 4130 nM | 
CC(C)Nc1sc(C(=O)c2ccncc2)c(N)c1C#N | > 5000 nM | 
CC(C)Nc1sc(C(=O)c2cccc(C#N)c2)c(N)c1C#N | > 5000 nM | 
Cc1ccc(C(=O)c2sc3nc(C)ccc3c2N)cc1 | > 5000 nM | 
CC(C)Nc1sc(C(=O)c2ccc(Cl)s2)cc1C#N | > 5000 nM | 
C=CCNc1sc(C(=O)c2ccc(Cl)s2)c(N)c1C#N | 638 nM | 
CCNc1sc(C(=O)c2cccs2)c(N)c1C#N | 1190 nM | 
CC(C)Nc1sc(C(=O)c2cc(Br)cs2)c(N)c1C#N | 599 nM | 
CC(C)Nc1sc(C(=O)c2ccn[nH]2)c(N)c1C#N | 1700 nM | 
Cc1ccc(C(=O)c2sc(NC(C)C)c(C#N)c2N)cc1 |  | inhibition [5]: 49%
CC(C)Nc1sc(C(=O)c2ccco2)c(N)c1C#N | 1350 nM | 
N#Cc1ccccc1Nc1sc(C(=O)c2ccc(Br)s2)c(N)c1C#N | > 5000 nM | 
C=CCNc1sc(C(=O)C(C)(C)C)c(N)c1C#N | > 5000 nM | 
CC(C)Nc1sc(C(=O)c2cc(Cl)cs2)c(N)c1C#N | 575 nM | 
COc1ccc(C(=O)c2sc3nc(C)ccc3c2N)cc1OC | > 5000 nM | 
CC(C)Nc1nc(N)c(C(=O)c2ccc(Cl)s2)s1 | > 5000 nM | inhibition [5]: 46%
CC(C)Nc1sc(C(=O)c2ccccc2)c(N)c1C#N |  | inhibition [5]: 47%
N#Cc1c(Nc2ccccc2F)sc(C(=O)c2ccc(Cl)s2)c1N | 707 nM | 
CC(C)N(C)c1sc(C(=O)c2ccc(Cl)s2)c(N)c1C#N | 1420 nM | 
CC(C)Nc1sc(C(=O)c2cccnc2)c(N)c1C#N | > 5000 nM | 
COc1ccc(C(=O)c2sc(NC(C)C)c(C#N)c2N)cc1OC | 1770 nM | 
N#Cc1c(NCc2ccccc2)sc(C(=O)c2ccc(Cl)s2)c1N | > 5000 nM | 
CC(C)Nc1sc(C(=O)c2ccc3c(c2)OCO3)c(N)c1C#N | 1120 nM | 
CC(C)Nc1sc(C(=O)c2ccc(C#N)cc2)c(N)c1C#N | > 5000 nM | 

The next lines start with results.

IC50 [1] | SMILES | other results
350 nM | CC(C)Nc1sc(C(=O)c2ccc(-c3cccc(O)c3)s2)c(N)c1C#N | 
388 nM | CC(C)Nc1sc(C(=O)c2ccc(Cl)s2)c(N)c1C(N)=O | 
241 nM | CC(C)Nc1sc(C(=O)c2ccc(-c3ccc(O)cc3)s2)c(N)c1C#N | 
540 nM | N#Cc1c(NCC(N)=O)sc(C(=O)c2ccc(Br)s2)c1N | 
98 nM | N#Cc1c(NCCN2CCNCC2)sc(C(=O)c2ccc(Br)s2)c1N | logP [2]: 3; solubility kinetic [3]: 189 µg/mL (≈ 429 µM); remaining at 1 h [4]: 81%
313 nM | N#Cc1c(NCCO)sc(C(=O)c2ccc(Br)s2)c1N | 
141 nM | N#Cc1c(NCCCN)sc(C(=O)c2ccc(Br)s2)c1N | 
269 nM | CC(C)Nc1sc(C(=O)c2ccc(-c3ccncc3)s2)c(N)c1C#N | 
494 nM | Cc1ccc(C(=O)c2sc(NC(C)C)c(C#N)c2N)s1 | 
122 nM | CC(C)Nc1sc(C(=O)c2ccc(Br)s2)c(N)c1C#N | 
222 nM | CCNc1sc(C(=O)c2ccc(Cl)s2)c(N)c1C#N | 
112 nM | CC(C)Nc1sc(C(=O)c2ccc(I)s2)c(N)c1C#N | 

Reference: ChEMBL document CHEMBL4330132, “5-Keto-3-cyano-2,4-diaminothiophenes as selective maternal embryonic leucine zipper kinase inhibitors” (Bioorg Med Chem Lett, 2019)
